Source: article PMC11378297, “Discovery and Profiling of New Multimodal Phenylglycinamide Derivatives as Potent Antiseizure and Antinociceptive Drug Candidates” (ACS Chemical Neuroscience, 2024)
Where two headings read alike, the source gives them in different places.

How the values were obtained:
[1] = tested on: OXPT-induced tactile allodynia, mice; assay: oxaliplatin (OXPT)-induced peripheral neuropathy, von Frey test
Protocol: In experimental conditions, these mechanisms trigger mechanical allodynia, which can be observed as a decrease in the pain threshold, as assessed by the von Frey test.[37]
We tested (R)-31 at the doses of 50, 75, and 100 mg/kg (Figure 7C).
The experimental groups consisted of 10 adult male Albino Swiss mice (CD-1, 18–25 g). Each animal was tested only once. Immediately after the assay, the animals were sacrificed by cervical dislocation. Behavioral measurements were observed by trained observers. […] The tested materials were administered intraperitoneally half an hour before the test, after being suspended in a 1% aqueous solution of Tween-80. 30 min before the test, the animals in the control group (negative control) received an appropriate dose of the vehicle (Tween-80, 1% aqueous solution, i.p.).

TRPM8 (h) = target: T1, TRPM8 (h) (Homo sapiens, UniProt Q7Z2W7); assay: TRPM8 (h) (antagonist effect); format: cell-based; conditions: HEK293, human recombinant HEK-293 cell, read-out: % inhibition of control agonist response
T1 construct: Eurofins
Protocol: Using previously described testing methodologies, binding/functional tests were conducted on a commercial basis at Eurofins Laboratories (Poitiers, France) and Eurofins Panlabs Discovery Services Taiwan, Ltd. (New Taipei City, Taiwan); see Table S9 for more information.
Table S9. Radioligand binding and functional assays. […]
TRPM8 (h) (antagonist effect) […]
Assays were performed commercially in Eurofins Laboratories (Poitiers, France) or Eurofins Panlabs Discovery Services
Taiwan, Ltd. (New Taipei City, Taiwan).

[2] = tested on: fast voltage-gated sodium channels in rat prefrontal cortex pyramidal neurons; assay: patch-clamp of fast voltage-gated sodium currents in prefrontal cortex pyramidal neurons; format: cell-based; conditions: 10 μM, control = 1.0, n = 5
Description: Figure 9 Compounds (R)-31 and (R)-32 inhibit fast voltage-gated sodium currents in prefrontal cortex pyramidal neurons. (A) Example sodium current recordings in control (black trace), after application of (R)-31 (blue trace) and after wash-out (red trace). Current traces were evoked by a rectangular voltage-step. (B) Influence of (R)-31 on sodium current is shown on an example neuron. Current traces were evoked once every 10 s. […] (C) Averaged, normalized maximal sodium current amplitudes in control, in the presence of (R)-31 and after wash-out. […] (D) Example sodium current recordings in control (black trace), after application of (R)-32 (blue trace) and after wash-out (red trace). Current traces were evoked by a rectangular voltage-step. (E) Influence of (R)-32 on sodium current is shown on an example neuron. Current traces were evoked once every 10 s. […] (F) Averaged, normalized maximal sodium current amplitudes in control, in the presence of (R)-32 and after wash-out.
Patch-clamp studies were carried out in prefrontal cortex pyramidal neurons. The methodology of slice preparation, preparation of dispersed cortical neurons, and sodium currents recording technique were the same as in our previous study.[99]

[3] = tested on: formalin-induced pain, mice; assay: formalin test; format: in vivo, mouse; conditions: for nociceptive response, acute phase of the formalin test: 0–5 min after formalin
[4] = tested on: capsaicin-induced pain, mice; assay: capsaicin-induced pain test; format: in vivo; conditions: Mus musculus, ip, 30 min before capsaicin
[5] = tested on: STZ-induced tactile allodynia, mice; assay: streptozotocin (STZ)-induced peripheral neuropathy, von Frey test; format: in vivo, mouse; conditions: 21 days after STZ
Description: To test whether the compounds are active in the neuropathic pain resulting from another mechanism of neuronal injury, we tested them in streptozotocin (STZ)-induced neuropathy. STZ is the commonly used experimental model to induce diabetic neuropathy. Streptozotocin is toxic to insulin-producing beta cells in the pancreas and selectively damages these cells, leading to insulin deficiency, which subsequently results in chronic hyperglycemia. Hyperglycemia is a major factor in the development of diabetic neuropathy. Elevated blood glucose levels increase its uptake by nerve cells, which results in metabolic and oxidative stress. Moreover, hyperglycemia leads to the formation of advanced glycation end products (AGEs), which are abnormal protein structures. AGEs can accumulate in neuronal tissue and contribute to nerve dysfunction.[63] […] Additionally, STZ-induced neuropathic pain may also involve alterations in the levels of neurotransmitters such as glutamate and GABA.[64],[65]
Each animal was tested only once. […] Behavioral measurements were observed by trained observers.

[6] = target: T2, Voltage-Gated Sodium channel hNav1.3 (Homo sapiens, UniProt Q9NY46); assay: human sodium ion channel cell based automated patch clamp assay, hNav1.3
T2 construct: Eurofins Discovery (St. Charles, MO, USA)
Protocol: Therefore, as a part of the more detailed functional characterization using automated patch clamp method, we tested the influence of (R)-32 on sodium currents mediated by several Navx channels comprising 5 different human subunits, namely, Nav1.1, Nav1.2, Nav1.3, Nav1.6, and Nav1.7, which are involved in both seizure and/or pain modulation.[74],[80],[81] As summarized in Tables S4–S8, (R)-32 starting from 10 μM effectively and in concentration-dependent manner decreased sodium currents mediated by all aforementioned sodium channel subunits. Furthermore, (R)-32 appeared to bind exclusively to sodium channels that are in an inactivated state (see pulse 2 in Tables S4–S8), but not to the channels that are in an open state (pulse 1) (for additional details, see Supporting Information).
Human sodium ion channels cell based automated patch clamp assay
Human sodium ion channels cell based automated patch clamp assays: sodium channels exist in, a) a resting or closed state at -120 mV, b) a transient open state that inactivates to c) inactivated state at -10 mV. Sodium current inhibition within 1-2 ms of channel opening at 0 mV is open channel inhibition (pulse 1). In order to completely inactivate the sodium channels and facilitate inactivated state-dependent binding of the drug, the channels were kept at […] ( -10 mV) longer (pulsed for 500 ms) and then stepped back to -120 mV for 10 ms to recover from inactivation into resting or closed state (but the channels that had drug bound to them will not recover from inactivation and will not open) before stepping to -10 mV for 50 ms (pulse 2) to mea sure sodium channels that are available to open. The higher inhibition seen at pulse 2 is due to inactivated state -dependent inhibition. Pulse 1 and 2 are used to investigate drug binding to the open state and inactivated state of the Na channels, respectively. Each concentration of compound is applied for 5 minutes. The results obtained for (R)-32 are summerized in Tables S4–S8. […]
Compound Concentration Measurement % Inhibition
Data interpretation: Results showing inhibition greater than 50% are considered to represent significant effects of test compound and have been bolded for (R)-32 for better visualization. The studies were carried out in Eurofins Discovery (St. Charles, MO, USA).

[7] = hNav1.3, Pulse 1 (open state), read-out: % Inhibition Mean
[8] = hNav1.3, Pulse 1 (open state), read-out: % Inhibition n1
[9] = hNav1.3, Pulse 1 (open state), read-out: % Inhibition n2
[10] = hNav1.3, Pulse 2 (inactivated state), read-out: % Inhibition Mean
[11] = hNav1.3, Pulse 2 (inactivated state), read-out: % Inhibition n1
[12] = hNav1.3, Pulse 2 (inactivated state), read-out: % Inhibition n2

T2 sequence (Q9NY46 whole entry): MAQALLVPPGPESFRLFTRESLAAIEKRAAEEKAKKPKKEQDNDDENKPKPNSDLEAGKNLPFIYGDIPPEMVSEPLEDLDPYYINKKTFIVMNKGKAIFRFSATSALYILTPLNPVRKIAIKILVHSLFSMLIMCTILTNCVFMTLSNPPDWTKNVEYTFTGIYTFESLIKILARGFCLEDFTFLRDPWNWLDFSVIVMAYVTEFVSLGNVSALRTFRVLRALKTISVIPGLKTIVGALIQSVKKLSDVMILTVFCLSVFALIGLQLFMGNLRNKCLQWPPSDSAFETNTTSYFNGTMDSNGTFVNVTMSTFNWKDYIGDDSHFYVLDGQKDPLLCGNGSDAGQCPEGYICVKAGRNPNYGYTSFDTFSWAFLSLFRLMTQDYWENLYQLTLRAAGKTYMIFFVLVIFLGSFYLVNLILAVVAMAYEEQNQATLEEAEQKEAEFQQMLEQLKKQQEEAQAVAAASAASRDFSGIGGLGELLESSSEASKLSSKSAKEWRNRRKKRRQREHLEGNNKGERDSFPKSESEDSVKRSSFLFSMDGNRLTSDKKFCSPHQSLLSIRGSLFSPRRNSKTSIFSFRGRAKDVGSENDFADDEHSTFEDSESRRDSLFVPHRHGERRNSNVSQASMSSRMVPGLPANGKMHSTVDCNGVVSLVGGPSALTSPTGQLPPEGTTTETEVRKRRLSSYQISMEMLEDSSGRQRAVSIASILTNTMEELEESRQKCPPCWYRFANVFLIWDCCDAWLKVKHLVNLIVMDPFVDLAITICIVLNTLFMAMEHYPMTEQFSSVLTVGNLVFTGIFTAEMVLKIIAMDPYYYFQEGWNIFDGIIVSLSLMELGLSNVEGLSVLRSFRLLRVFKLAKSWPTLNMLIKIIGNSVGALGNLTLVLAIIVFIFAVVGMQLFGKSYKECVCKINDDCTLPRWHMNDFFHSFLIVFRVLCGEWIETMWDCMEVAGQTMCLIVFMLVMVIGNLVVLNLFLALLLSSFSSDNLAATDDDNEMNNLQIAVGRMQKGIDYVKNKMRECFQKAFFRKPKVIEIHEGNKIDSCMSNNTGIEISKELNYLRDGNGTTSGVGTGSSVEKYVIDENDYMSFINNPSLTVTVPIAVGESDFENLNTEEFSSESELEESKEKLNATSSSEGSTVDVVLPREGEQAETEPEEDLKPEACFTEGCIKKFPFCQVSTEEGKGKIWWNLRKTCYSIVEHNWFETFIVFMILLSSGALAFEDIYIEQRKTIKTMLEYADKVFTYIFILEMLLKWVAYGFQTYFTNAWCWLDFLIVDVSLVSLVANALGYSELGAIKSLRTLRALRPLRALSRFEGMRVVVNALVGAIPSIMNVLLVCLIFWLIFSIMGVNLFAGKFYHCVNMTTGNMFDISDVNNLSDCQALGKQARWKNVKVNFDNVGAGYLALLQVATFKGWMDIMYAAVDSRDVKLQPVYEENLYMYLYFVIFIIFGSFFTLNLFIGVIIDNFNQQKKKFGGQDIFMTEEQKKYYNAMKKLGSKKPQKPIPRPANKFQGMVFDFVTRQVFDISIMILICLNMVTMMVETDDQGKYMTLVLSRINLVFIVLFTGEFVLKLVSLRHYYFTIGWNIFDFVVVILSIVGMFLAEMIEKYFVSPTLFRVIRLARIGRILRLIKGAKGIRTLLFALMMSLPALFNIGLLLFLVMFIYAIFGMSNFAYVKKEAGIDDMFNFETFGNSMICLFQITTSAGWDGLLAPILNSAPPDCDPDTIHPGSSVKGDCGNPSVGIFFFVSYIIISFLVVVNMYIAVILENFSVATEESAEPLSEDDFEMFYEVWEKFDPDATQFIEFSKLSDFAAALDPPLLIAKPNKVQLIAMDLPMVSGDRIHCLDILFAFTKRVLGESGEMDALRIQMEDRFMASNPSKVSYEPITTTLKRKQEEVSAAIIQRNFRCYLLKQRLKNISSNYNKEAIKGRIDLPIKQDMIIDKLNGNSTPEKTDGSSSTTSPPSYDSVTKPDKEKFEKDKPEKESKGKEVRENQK
T1 sequence (Q7Z2W7 whole entry): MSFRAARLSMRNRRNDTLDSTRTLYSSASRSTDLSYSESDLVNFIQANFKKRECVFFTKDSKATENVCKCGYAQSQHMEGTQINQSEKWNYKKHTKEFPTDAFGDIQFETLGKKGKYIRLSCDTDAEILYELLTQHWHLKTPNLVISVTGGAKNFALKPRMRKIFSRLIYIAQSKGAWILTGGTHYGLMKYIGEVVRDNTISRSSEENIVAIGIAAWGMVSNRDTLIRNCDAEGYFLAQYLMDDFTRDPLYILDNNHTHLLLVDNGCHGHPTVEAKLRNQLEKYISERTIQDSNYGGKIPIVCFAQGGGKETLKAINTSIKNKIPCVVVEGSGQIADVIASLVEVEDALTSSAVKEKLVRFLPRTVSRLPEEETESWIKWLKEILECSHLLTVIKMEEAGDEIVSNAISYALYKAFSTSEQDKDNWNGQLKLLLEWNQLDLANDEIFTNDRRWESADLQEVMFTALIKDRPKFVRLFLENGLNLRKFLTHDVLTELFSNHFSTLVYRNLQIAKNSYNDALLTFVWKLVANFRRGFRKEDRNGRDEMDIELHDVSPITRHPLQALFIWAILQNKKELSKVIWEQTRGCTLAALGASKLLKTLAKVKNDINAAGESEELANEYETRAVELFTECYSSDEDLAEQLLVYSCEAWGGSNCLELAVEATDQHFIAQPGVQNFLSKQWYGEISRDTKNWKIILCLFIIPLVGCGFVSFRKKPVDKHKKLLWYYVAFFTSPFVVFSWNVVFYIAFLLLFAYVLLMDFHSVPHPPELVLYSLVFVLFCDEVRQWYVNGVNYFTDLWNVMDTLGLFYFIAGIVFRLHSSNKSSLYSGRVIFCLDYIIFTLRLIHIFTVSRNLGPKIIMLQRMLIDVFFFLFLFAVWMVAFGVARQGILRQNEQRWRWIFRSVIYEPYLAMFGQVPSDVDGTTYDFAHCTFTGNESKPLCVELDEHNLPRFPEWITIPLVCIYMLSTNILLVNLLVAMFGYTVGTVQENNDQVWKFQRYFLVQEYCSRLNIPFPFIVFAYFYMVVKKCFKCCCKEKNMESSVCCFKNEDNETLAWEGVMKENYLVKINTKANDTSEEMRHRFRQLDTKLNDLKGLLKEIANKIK

`CC(=O)N[C@@H](C(=O)N1CCN(c2cccc(C(F)(F)F)c2)CC1)c1ccccc1` [(R)-31, (R)-N-(2-Oxo-1-phenyl-2-(4-(3-(trifluoromethyl)phenyl)piperazin-1-yl)ethyl)acetamide] was tested, and the “pain threshold, early phase (3 h after OXPT), % of the initial value/baseline” value (“pain threshold … % of the initial value/baseline” below) ([1]; 50 mg/kg i.p.) was 114.5%, the “pain threshold … % of the initial value/baseline” value ([1]; 75 mg/kg i.p.) was 93% and the “pain threshold, late phase (7 days after OXPT), % of the baseline” value ([1]; 75 mg/kg i.p.) was 87%. For the same compound, the “pain threshold, early phase (3 h after OXPT), % of the initial value” ([1]; 100 mg/kg i.p.) was 78%, the “pain threshold, late phase (7 days after OXPT), % of the baseline” value ([1]; 100 mg/kg i.p.) was 77% and the inhibition at 10 µM (TRPM8 (h)) was 4.6%. The “averaged, maximal-normalized amplitude of voltage-gated sodium currents after application” value [2] was 0.66 ± 0.04, the “averaged, maximal-normalized amplitude of voltage-gated sodium currents after wash-out” value [2] was 0.76 ± 0.05 and the “nociceptive response, acute phase of the formalin test” value ([3]; 100 mg/kg i.p.) was “significantly attenuated the nociceptive response”. The “nociceptive response, late phase of the formalin test” value ([3]; 100 mg/kg i.p., 15–30 min after formalin) was “significantly attenuated the nociceptive response”, the ED50 [4] was 53.9 mg/kg and the “pain threshold in STZ-induced neuropathy, % of the baseline” value ([5]; 25 mg/kg i.p.) was “did not observe any significant effects”. For the same compound, the “pain threshold in STZ-induced neuropathy, % of the baseline” value ([5]; 50 mg/kg i.p.) was 123% and the “pain threshold in STZ-induced neuropathy, % of the baseline” value ([5]; 100 mg/kg i.p.) was 178%.
`CC(=O)N[C@@H](C(=O)N1CCN(c2cccc(OC(F)(F)F)c2)CC1)c1ccccc1` [(R)-32, (R)-N-(2-Oxo-1-phenyl-2-(4-(3-(trifluoromethoxy)phenyl)piperazin-1-yl)ethyl)acetamide] was tested, and the “pain threshold, early phase (3 h after OXPT), % of the baseline” value ([1]; 25 mg/kg i.p.) was 102%, the “pain threshold, late phase (7 days after OXPT), % of the baseline” value ([1]; 25 mg/kg i.p.) was 68% and the “pain threshold … % of the initial value/baseline” value ([1]; 50 mg/kg i.p.) was 90%. For the same compound, the “pain threshold, late phase (7 days after OXPT), % of the baseline” value ([1]; 50 mg/kg i.p.) was 94%, the “pain threshold … % of the initial value/baseline” value ([1]; 75 mg/kg i.p.) was 109% and the “pain threshold, late phase (7 days after OXPT), % of the baseline” value ([1]; 75 mg/kg i.p.) was 108%. For the same compound, the inhibition at 10 µM (TRPM8 (h)) was 12.6%, the “averaged, maximal-normalized amplitude of voltage-gated sodium currents after application” value [2] was 0.61 ± 0.07 and the “averaged, maximal-normalized amplitude of voltage-gated sodium currents after wash-out” value [2] was 0.72 ± 0.08. For the same compound, the “nociceptive response, acute phase of the formalin test” value ([3]; 100 mg/kg i.p.) was “decreased the nociceptive response”, the “nociceptive reaction, second phase of the formalin test” value ([3]; 25, 50 and 100 mg/kg i.p.) was “inhibited nociceptive reaction at all tested doses” and the ED50 ([3]; Mus musculus, ip, mice, i.p., phase II, read-out: ED50 in the late phase of the formalin test) was 35.7 mg/kg. The inhibition at 1 µM [6, 7] was -3.38%, the inhibition at 1 µM [6, 8] was -7.33% and the inhibition at 1 µM [6, 9] was 0.56%. It also gave an inhibition at 10 µM [6, 7] of -3.18%, an inhibition at 10 µM [6, 8] of -8.46% and an inhibition at 10 µM [6, 9] of 2.11%. For the same compound, the inhibition at 100 µM [6, 7] was 6.75%, the inhibition at 100 µM [6, 8] was 5.68% and the inhibition at 100 µM [6, 9] was 7.82%. It also gave an inhibition at 1 µM [6, 10] of -2.78%, an inhibition at 1 µM [6, 11] of -5.59% and an inhibition at 1 µM [6, 12] of 0.03%. It also gave an inhibition at 10 µM [6, 10] of 39.5%, an inhibition at 10 µM [6, 11] of 42.1% and an inhibition at 10 µM [6, 12] of 37%. For the same compound, the inhibition at 100 µM [6, 10] was 99.1%, the inhibition at 100 µM [6, 11] was 99.6% and the inhibition at 100 µM [6, 12] was 98.6%. For the same compound, the ED50 [4] was 20.2 mg/kg, the “pain threshold in STZ-induced neuropathy, % of the baseline” value ([5]; 25 mg/kg i.p.) was 113% and the “pain threshold in STZ-induced neuropathy, % of the baseline” value ([5]; 50 mg/kg i.p.) was 120%. For the same compound, the “pain threshold in STZ-induced neuropathy, % of the baseline” value ([5]; 100 mg/kg i.p.) was 134%.
In the case of `CCCCNc1ccc(C(=O)OCCN(C)C)cc1` [Tetracaine, reference compound], the inhibition at 3 µM [6, 7] is reported as 0.75%, the inhibition at 3 µM [6, 8] is reported as 3.41% and the inhibition at 3 µM [6, 9] is reported as -1.92%. The inhibition at 30 µM [6, 7] was 9.85%, the inhibition at 30 µM [6, 8] was 10.3% and the inhibition at 30 µM [6, 9] was 9.44%. The inhibition at 300 µM [6, 7] was 84.8%, the inhibition at 300 µM [6, 8] was 81.8% and the inhibition at 300 µM [6, 9] was 87.8%. It also gave an inhibition at 3 µM [6, 10] of 56.1%, an inhibition at 3 µM [6, 11] of 56.1% and an inhibition at 3 µM [6, 12] of 56.1%. The inhibition at 30 µM [6, 10] was 100%, the inhibition at 30 µM [6, 11] was 98.9% and the inhibition at 30 µM [6, 12] was 101%. It also gave an inhibition at 300 µM [6, 10] of 101%, an inhibition at 300 µM [6, 11] of 101% and an inhibition at 300 µM [6, 12] of 102%.
